Experimental data from patent US20240239861A1, “GLUCAGON-RECEPTOR SELECTIVE POLYPEPTIDES AND METHODS OF USE THEREOF” (i2O Therapeutics, Inc., priority 2016, published 2024).
Where a SMILES comes first, the peptide text is derived from it. [ ]: non-standard residue; d: D form. Aib = CC(C)(N)C(=O)O

Tests used:
[1] = target: human GCGR (Homo sapiens, UniProt P47871); experiment: Peptide-receptor mediated cAMP accumulation (LANCE Ultra cAMP) in CHO-K1 cells transfected with human GCGR; assay type: cell-based; conditions: Table 3
Chain of human GCGR (P47871 26-477): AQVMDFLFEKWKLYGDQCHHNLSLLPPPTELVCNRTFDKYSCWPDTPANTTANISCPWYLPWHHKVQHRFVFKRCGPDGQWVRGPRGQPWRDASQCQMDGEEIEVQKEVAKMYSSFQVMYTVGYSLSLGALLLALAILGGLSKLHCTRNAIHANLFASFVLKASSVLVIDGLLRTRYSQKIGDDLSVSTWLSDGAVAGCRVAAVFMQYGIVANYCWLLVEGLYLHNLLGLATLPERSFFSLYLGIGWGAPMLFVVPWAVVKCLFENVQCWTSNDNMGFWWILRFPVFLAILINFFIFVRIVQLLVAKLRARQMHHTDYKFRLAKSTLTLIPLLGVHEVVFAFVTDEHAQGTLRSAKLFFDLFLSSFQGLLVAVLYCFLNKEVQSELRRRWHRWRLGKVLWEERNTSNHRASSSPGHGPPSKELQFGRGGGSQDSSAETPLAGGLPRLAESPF

[2] = target: human GLP-1R (Homo sapiens, UniProt P43220); experiment: Peptide-receptor mediated cAMP accumulation (LANCE Ultra cAMP) in CHO-K1 cells transfected with human GLP-1R; assay type: cell-based; conditions: hGLP1 pEC50 (cAMP mean (n = 3): 11 point curve starting at 1 nM, Table 3)
Chain of human GLP-1R (P43220 24-463): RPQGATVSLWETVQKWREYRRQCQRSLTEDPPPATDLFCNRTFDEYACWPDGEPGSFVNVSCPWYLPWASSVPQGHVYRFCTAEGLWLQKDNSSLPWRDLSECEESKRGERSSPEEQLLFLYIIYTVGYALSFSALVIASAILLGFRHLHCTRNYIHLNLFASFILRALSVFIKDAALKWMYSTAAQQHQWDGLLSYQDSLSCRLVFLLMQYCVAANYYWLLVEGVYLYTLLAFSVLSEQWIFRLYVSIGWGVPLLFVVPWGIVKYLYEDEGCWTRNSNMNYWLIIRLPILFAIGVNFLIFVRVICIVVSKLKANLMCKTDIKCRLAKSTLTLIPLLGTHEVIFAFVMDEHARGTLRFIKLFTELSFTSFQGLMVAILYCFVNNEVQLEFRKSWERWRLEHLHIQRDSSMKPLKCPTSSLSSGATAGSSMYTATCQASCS

| SMILES | EC50 [1] | EC50 [2] |
| --- | --- | --- |
| CC(C)C[C@H](NC(=O)[C@H](Cc1ccc(O)cc1)NC(=O)[C@H](CCCCN)NC(=O)[C@H](CO)NC(=O)[C@H](Cc1ccc(O)cc1)NC(=O)[C@H](CC(=O)O)NC(=O)[C@H](CO)NC(=O)[C@@H](NC(=O)[C@H](Cc1ccccc1)NC(=O)[C@@H](NC(=O)CNC(=O)[C@H](Cc1c[nH]cn1)NC(=O)[C@H](CO)NC(=O)[C@@H](N)Cc1ccc(O)cc1)[C@@H](C)O)[C@@H](C)O)C(=O)N[C@@H](CC(=O)O)C(=O)NC(C)(C)C(=O)N[C@@H](CCC(=O)O)C(=O)N[C@@H](CCCNC(=N)N)C(=O)N[C@@H](C)C(=O)N[C@@H](CCC(N)=O)C(=O)N[C@@H](CCC(=O)O)C(=O)N[C@@H](Cc1ccccc1)C(=O)N[C@H](C(=O)NC(C)(C)C(=O)N[C@@H](Cc1c[nH]c2ccccc12)C(=O)N[C@@H](CC(C)C)C(=O)N[C@@H](CCC(=O)O)C(=O)N[C@@H](CC(=O)O)C(=O)N[C@@H](CCC(=O)O)C(=O)N1CCC[C@H]1C(=O)N[C@@H](CO)C(=O)N[C@@H](CO)C(=O)NCC(=O)N[C@@H](C)C(=O)N1CCC[C@H]1C(=O)N1CCC[C@H]1C(=O)N1CCC[C@H]1C(=O)N[C@@H](CO)C(=O)O)C(C)C [Compound A17] (H-YSHGTFTSDYSKYLD[Aib]ERAQEFV[Aib]WLEDEPSSGAPPPS-OH) | 0.00794 nM | > 1 nM |
| CC(C)C[C@H](NC(=O)[C@H](Cc1c[nH]c2ccccc12)NC(=O)[C@H](CCCCN)NC(=O)[C@H](CO)NC(=O)[C@H](Cc1ccc(O)cc1)NC(=O)[C@H](CC(=O)O)NC(=O)[C@H](CO)NC(=O)[C@@H](NC(=O)[C@H](Cc1ccccc1)NC(=O)[C@@H](NC(=O)CNC(=O)[C@H](Cc1c[nH]cn1)NC(=O)[C@H](CO)NC(=O)[C@@H](N)Cc1ccc(O)cc1)[C@@H](C)O)[C@@H](C)O)C(=O)N[C@@H](CC(=O)O)C(=O)NC(C)(C)C(=O)N[C@@H](CO)C(=O)N[C@@H](CCCNC(=N)N)C(=O)N[C@@H](C)C(=O)N[C@@H](CCC(N)=O)C(=O)N[C@@H](CCC(=O)O)C(=O)N[C@@H](Cc1ccccc1)C(=O)N[C@H](C(=O)NC(C)(C)C(=O)N[C@@H](Cc1c[nH]c2ccccc12)C(=O)N[C@@H](CC(C)C)C(=O)N[C@@H](CCC(=O)O)C(=O)N[C@@H](CC(=O)O)C(=O)N[C@@H](CCC(=O)O)C(=O)N1CCC[C@H]1C(=O)N[C@@H](CO)C(=O)N[C@@H](CO)C(=O)NCC(=O)N[C@@H](C)C(=O)N1CCC[C@H]1C(=O)N1CCC[C@H]1C(=O)N1CCC[C@H]1C(=O)N[C@@H](CO)C(=O)O)C(C)C [Compound A19] (H-YSHGTFTSDYSKWLD[Aib]SRAQEFV[Aib]WLEDEPSSGAPPPS-OH; N-terminus assumed) | 0.01 nM | > 1 nM |
| CC(C)C[C@H](NC(=O)[C@H](Cc1ccc(O)cc1)NC(=O)[C@H](CCCCN)NC(=O)[C@H](CO)NC(=O)[C@H](Cc1ccc(O)cc1)NC(=O)[C@H](CC(=O)O)NC(=O)[C@H](CO)NC(=O)[C@@H](NC(=O)[C@H](Cc1ccccc1)NC(=O)[C@@H](NC(=O)CNC(=O)[C@H](Cc1c[nH]cn1)NC(=O)[C@H](CO)NC(=O)[C@@H](N)Cc1ccc(O)cc1)[C@@H](C)O)[C@@H](C)O)C(=O)N[C@@H](CC(=O)O)C(=O)NC(C)(C)C(=O)N[C@@H](CCCCN)C(=O)N[C@@H](CCCNC(=N)N)C(=O)N[C@@H](C)C(=O)N[C@@H](CCC(N)=O)C(=O)N[C@@H](CCC(=O)O)C(=O)N[C@@H](Cc1ccccc1)C(=O)N[C@H](C(=O)NC(C)(C)C(=O)N[C@@H](Cc1c[nH]c2ccccc12)C(=O)N[C@@H](CC(C)C)C(=O)N[C@@H](CCC(=O)O)C(=O)N[C@@H](CC(=O)O)C(=O)N[C@@H](CCC(=O)O)C(=O)N1CCC[C@H]1C(=O)N[C@@H](CO)C(=O)N[C@@H](CO)C(=O)NCC(=O)N[C@@H](CCC(=O)O)C(=O)N1CCC[C@H]1C(=O)N1CCC[C@H]1C(=O)N1CCC[C@H]1C(=O)N[C@@H](CO)C(=O)O)C(C)C [Compound A21] (H-YSHGTFTSDYSKYLD[Aib]KRAQEFV[Aib]WLEDEPSSGEPPPS-OH; N-terminus assumed) | 0.00794 nM | > 1 nM |
| CC(C)C[C@H](NC(=O)[C@H](Cc1ccc(O)cc1)NC(=O)[C@H](CCCCN)NC(=O)[C@H](CO)NC(=O)[C@H](Cc1ccc(O)cc1)NC(=O)[C@H](CC(=O)O)NC(=O)[C@H](CO)NC(=O)[C@@H](NC(=O)[C@H](Cc1ccccc1)NC(=O)[C@@H](NC(=O)CNC(=O)[C@H](Cc1c[nH]cn1)NC(=O)[C@H](CO)NC(=O)[C@@H](N)Cc1ccc(O)cc1)[C@@H](C)O)[C@@H](C)O)C(=O)N[C@@H](CC(=O)O)C(=O)NC(C)(C)C(=O)N[C@@H](CCCCN)C(=O)N[C@@H](CCCNC(=N)N)C(=O)N[C@@H](C)C(=O)N[C@@H](CCC(N)=O)C(=O)N[C@@H](CCC(=O)O)C(=O)N[C@@H](Cc1ccccc1)C(=O)N[C@H](C(=O)NC(C)(C)C(=O)N[C@@H](Cc1c[nH]c2ccccc12)C(=O)N[C@@H](CC(C)C)C(=O)N[C@@H](CCC(=O)O)C(=O)N[C@@H](CC(=O)O)C(=O)N[C@@H](CCC(=O)O)C(=O)N1CCC[C@H]1C(=O)N[C@@H](CO)C(=O)N[C@@H](CO)C(=O)NCC(=O)N[C@@H](CO)C(=O)N1CCC[C@H]1C(=O)N1CCC[C@H]1C(=O)N1CCC[C@H]1C(=O)N[C@@H](CO)C(=O)O)C(C)C [Compound A22] (H-YSHGTFTSDYSKYLD[Aib]KRAQEFV[Aib]WLEDEPSSGSPPPS-OH; N-terminus assumed) | 0.01 nM | > 1 nM |
| CC(C)C[C@H](NC(=O)[C@H](Cc1ccc(O)cc1)NC(=O)[C@H](CCCCN)NC(=O)[C@H](CO)NC(=O)[C@H](Cc1ccc(O)cc1)NC(=O)[C@H](CC(=O)O)NC(=O)[C@H](CO)NC(=O)[C@@H](NC(=O)[C@H](Cc1ccccc1)NC(=O)[C@@H](NC(=O)CNC(=O)[C@H](Cc1c[nH]cn1)NC(=O)[C@H](CO)NC(=O)[C@@H](N)Cc1ccc(O)cc1)[C@@H](C)O)[C@@H](C)O)C(=O)N[C@@H](CC(=O)O)C(=O)NC(C)(C)C(=O)N[C@@H](CCCCN)C(=O)N[C@@H](CCCNC(=N)N)C(=O)N[C@@H](C)C(=O)N[C@@H](CCC(N)=O)C(=O)N[C@@H](CCC(=O)O)C(=O)N[C@@H](Cc1ccccc1)C(=O)N[C@H](C(=O)NC(C)(C)C(=O)N[C@@H](Cc1c[nH]c2ccccc12)C(=O)N[C@@H](CC(C)C)C(=O)N[C@@H](CCC(=O)O)C(=O)N[C@@H](CC(=O)O)C(=O)N[C@@H](CCC(=O)O)C(=O)N1CCC[C@H]1C(=O)N[C@@H](CO)C(=O)N[C@@H](CO)C(=O)N[C@@H](CCCCN)C(=O)N[C@@H](C)C(=O)N1CCC[C@H]1C(=O)N1CCC[C@H]1C(=O)N1CCC[C@H]1C(=O)N[C@@H](CO)C(=O)O)C(C)C [Compound A23] (H-YSHGTFTSDYSKYLD[Aib]KRAQEFV[Aib]WLEDEPSSKAPPPS-OH; N-terminus assumed) | 0.00631 nM | > 1 nM |
| CC(C)C[C@H](NC(=O)[C@H](Cc1ccc(O)cc1)NC(=O)[C@H](CCCCN)NC(=O)[C@H](CO)NC(=O)[C@H](Cc1ccc(O)cc1)NC(=O)[C@H](CC(=O)O)NC(=O)[C@H](CO)NC(=O)[C@@H](NC(=O)[C@H](Cc1ccccc1)NC(=O)[C@@H](NC(=O)CNC(=O)[C@H](Cc1c[nH]cn1)NC(=O)[C@H](CO)NC(=O)[C@@H](N)Cc1ccc(O)cc1)[C@@H](C)O)[C@@H](C)O)C(=O)N[C@@H](CC(=O)O)C(=O)NC(C)(C)C(=O)N[C@@H](CCCCN)C(=O)N[C@@H](CCCNC(=N)N)C(=O)N[C@@H](C)C(=O)N[C@@H](CCC(N)=O)C(=O)N[C@@H](CCC(=O)O)C(=O)N[C@@H](Cc1ccccc1)C(=O)N[C@H](C(=O)NC(C)(C)C(=O)N[C@@H](Cc1c[nH]c2ccccc12)C(=O)N[C@@H](CC(C)C)C(=O)N[C@@H](CCC(=O)O)C(=O)N[C@@H](CC(=O)O)C(=O)N[C@@H](CCC(=O)O)C(=O)N1CCC[C@H]1C(=O)N[C@@H](CO)C(=O)N[C@@H](CO)C(=O)NCC(=O)N[C@@H](C)C(=O)N1CCC[C@H]1C(=O)N1CCC[C@H]1C(=O)N1CCC[C@H]1C(=O)N[C@@H](CO)C(=O)N[C@@H](CO)C(=O)O)C(C)C [Compound A25] (H-YSHGTFTSDYSKYLD[Aib]KRAQEFV[Aib]WLEDEPSSGAPPPSS-OH; N-terminus assumed) | 0.00501 nM | > 1 nM |
| CC(C)C[C@H](NC(=O)[C@H](Cc1ccc(O)cc1)NC(=O)[C@H](CCCCN)NC(=O)[C@H](CO)NC(=O)[C@H](Cc1ccc(O)cc1)NC(=O)[C@H](CC(=O)O)NC(=O)[C@H](CO)NC(=O)[C@@H](NC(=O)[C@H](Cc1ccccc1)NC(=O)[C@@H](NC(=O)CNC(=O)[C@H](Cc1c[nH]cn1)NC(=O)[C@H](CO)NC(=O)[C@@H](N)Cc1ccc(O)cc1)[C@@H](C)O)[C@@H](C)O)C(=O)N[C@@H](CC(=O)O)C(=O)NC(C)(C)C(=O)N[C@@H](CCCCN)C(=O)N[C@@H](CCCNC(=N)N)C(=O)N[C@@H](C)C(=O)N[C@@H](CCC(N)=O)C(=O)N[C@@H](CCC(=O)O)C(=O)N[C@@H](Cc1ccccc1)C(=O)N[C@H](C(=O)NC(C)(C)C(=O)N[C@@H](Cc1c[nH]c2ccccc12)C(=O)N[C@@H](CC(C)C)C(=O)N[C@@H](CCC(=O)O)C(=O)N[C@@H](CC(=O)O)C(=O)N[C@@H](CCC(=O)O)C(=O)N1CCC[C@H]1C(=O)N[C@@H](CO)C(=O)N[C@@H](CO)C(=O)NCC(=O)N[C@@H](C)C(=O)N1CCC[C@H]1C(=O)N1CCC[C@H]1C(=O)N1CCC[C@H]1C(=O)N[C@@H](CO)C(=O)N[C@@H](CCC(=O)O)C(=O)O)C(C)C [Compound A26] (H-YSHGTFTSDYSKYLD[Aib]KRAQEFV[Aib]WLEDEPSSGAPPPSE-OH; N-terminus assumed) | 0.00794 nM | > 1 nM |
